{"source": "patent US20200283482A1", "about": "“BICYCLIC PEPTIDE LIGAND PRR-A CONJUGATES AND USES THEREOF” (BicycleRD Limited, priority 2017, published 2020)", "key": {"[1]": {"assay": "Plasma stability, human", "type": "in vitro ADME", "conditions": "pH 7.4; human plasma, 2 μM, 37° C.; read-out: T1/2 (human)"}, "[2]": {"assay": "Plasma stability, rat", "type": "in vitro ADME", "conditions": "pH 7.4; rat plasma, 2 μM, 37° C.; read-out: T1/2 (rat)"}, "[3]": {"assay": "Plasma pharmacokinetics of Bicycle conjugates in CD-1 mice", "type": "in vivo", "conditions": "3 mg/kg IV, male CD-1 mice", "description": "Male CD-1 mice were dosed with 3 mg/kg of Bicycle Conjugate formulated in 25 mM Histidine HCl, 10% sucrose pH 7 via tail vein injection. Serial bleeding (about 80 μL blood/time point) was performed via submadibular or saphenous vein at each time point. All blood samples were immediately transferred into prechilled microcentrifuge tubes containing 2 μL K2-EDTA (0.5M) as anti-coagulant and placed on wet ice."}, "[4]": {"tested_on": "B16F10 xenograft", "assay": "In vivo efficacy of I-8 alone or with antiPD-1 mAb in B16F10 xenograft", "design": "species or system C57BL/6J mice", "description": "B16F10 tumor cells were maintained in vitro as a monolayer culture in EMEM medium supplemented with 10% heat inactivated fetal bovine serum at 37° C. in an atmosphere of 5% CO2 in air. The tumor cells were routinely subcultured twice weekly by trypsin-EDTA treatment. The cells growing in an exponential growth phase were harvested and counted for tumor inoculation.\n6-8 week old female C57BL/6J mice were inoculated subcutaneously at the right flank with B16F10 tumor cells (5×10^5) in 0.1 ml of PBS for tumor development. Animals were randomized when the average tumor volume reached 65 mm^3.\nConjugates were formulated in 25 mM Histidine, 10% sucrose pH=7 buffer (vehicle) and administered intravenously. Anti-PD1 antibody (Wuxi AppTech, Shanghai, China) was formulated in aqueous buffer and administered intraperitoneally.\nTumor volume was measured three times weekly in two dimensions using a caliper, and the volume was expressed in mm^3 using the formula: V=0.5 a×b^2 where a and b are the long and short diameters of the tumor, respectively. The tumor size was then used for calculations of T/C value. The T/C value (in percent) is an indication of antitumor effectiveness; T and C are the mean volumes of the treated and control groups, respectively, on a given day.\nTGI was calculated for each group using the formula: TGI (%)=[1−(Ti−T0)/(Vi−V0)]×100; Ti is the average tumor volume of a treatment group on a given day, T0 is the average tumor volume of the treatment group on the day of treatment start, Vi is the average tumor volume of the vehicle control group on the same day with Ti, and V0 is the average tumor volume of the vehicle group on the day of treatment start.\nSummary statistics, including mean and the standard error of the mean (SEM), are provided for the tumor volume of each group at each time point.\nStatistical analysis of difference in tumor volume among the groups was conducted on the data obtained at the best therapeutic time point after the final dose.\nA one-way ANOVA was performed to compare tumor volume among groups, and when a significant F-statistics (a ratio of treatment variance to the error variance) was obtained, comparisons between groups were carried out with Games-Howell test. All data were analyzed using Prism. P<0.05 was considered to be statistically significant."}, "[5]": {"assay": "Plasma stability, mouse", "type": "in vitro ADME", "conditions": "pH 7.4; mouse plasma, 2 μM, 37° C.; read-out: T1/2 (mouse)"}, "[6]": {"conditions": "Study 2, day 9, I-8 20 mpk iv tiw, aPD1 10 mpk ip qw"}}, "note": "Starred links: 1 amine or outer side, 2 acyl side, 3 side chain; linkers in the order of their positions; H or OH if unused. Positions of bridges follow the written chain, without caps; N, C: chain ends. Non-standard residues stand in square brackets, D forms with d. Residues, ends and D or L forms follow the SMILES beside them. *: point of attachment. X1 = CCOCc1nc2c(NC(=O)OCCSSC(C)CCC(=O)*)nc3ccccc3c2n1CC(C)(C)O; 1Nal = N[C@@H](Cc1cccc2ccccc12)C(=O)O; TBMB = c1c(C[*:1])cc(C[*:3])cc1C[*:2]; Tle = CC(C)(C)[C@H](N)C(=O)O; βAla = NCCC(=O)O; Sar = CNCC(=O)O", "data": [{"smiles": "CCOCc1nc2c(NC(=O)OCCSSC(C)CCC(=O)NCCC(=O)N(C)CC(=O)N(C)CC(=O)N(C)CC(=O)N(C)CC(=O)N(C)CC(=O)N(C)CC(=O)N(C)CC(=O)N(C)CC(=O)N(C)CC(=O)N(C)CC(=O)N[C@@H](C)C(=O)N[C@H]3CSCc4cc5cc(c4)CSC[C@H](NC(=O)[C@@H](C)NC(=O)[C@H](Cc4cccc6ccccc46)NC(=O)[C@H](CCC(=O)O)NC(=O)[C@H](CC(N)=O)NC(=O)[C@@H](C)NC3=O)C(=O)N[C@@H](CCC(=O)O)C(=O)N[C@@H](CC(=O)O)C(=O)N[C@@H](Cc3ccccc3)C(=O)N[C@@H](Cc3ccc(O)cc3)C(=O)N[C@@H](CC(=O)O)C(=O)N[C@@H](C(C)(C)C)C(=O)N[C@H](C(N)=O)CSC5)nc3ccccc3c2n1CC(C)(C)O", "note": "(stereo partly shown) [I-8] ({X1-βAla}-[Sar][Sar][Sar][Sar][Sar][Sar][Sar][Sar][Sar][Sar]AC[dA]NE[1Nal][dA]CEDFYD[Tle]C-NH2; linker 12-18-25 via TBMB)", "values": [{"measurement": "half-life at 2 μM", "setting": "[1]", "result": "2 to 6", "unit": "h"}, {"measurement": "half-life at 2 μM", "setting": "[2]", "result": "< 2", "unit": "h"}, {"measurement": "systemic elimination", "setting": "[3]", "result": "rapid systemic elimination"}, {"measurement": "T/C", "setting": "[4]; Study 1, 20 mpk iv tiw, day 9", "result": 54.9, "unit": "%"}, {"measurement": "TGI", "setting": "[4]; Study 1, 20 mpk iv tiw, day 9", "result": 50.0, "unit": "%"}, {"measurement": "Tumor Volume (Mean ± SEM)", "setting": "[4]; Study 1, 20 mpk iv tiw, day 9", "result": "356 ± 60", "unit": "mm^3"}, {"measurement": "T/C", "setting": "[4]; Study 1, 60 mpk iv tiw, day 9", "result": 25.6, "unit": "%"}, {"measurement": "TGI", "setting": "[4]; Study 1, 60 mpk iv tiw, day 9", "result": 82.9, "unit": "%"}, {"measurement": "Tumor Volume (Mean ± SEM)", "setting": "[4]; Study 1, 60 mpk iv tiw, day 9", "result": "166 ± 26", "unit": "mm^3"}, {"measurement": "T/C", "setting": "[4]; [6]", "result": 86.8, "unit": "%"}, {"measurement": "TGI", "setting": "[4]; [6]", "result": 13.7, "unit": "%"}, {"measurement": "Tumor Volume (Mean ± SEM)", "setting": "[4]; [6]", "result": "1678 ± 1129", "unit": "mm^3"}, {"measurement": "half-life at 2 μM", "setting": "[5]", "result": "< 2", "unit": "h"}]}]}
